{
  "source": "ChEMBL document CHEMBL4725372",
  "about": "“Rational Design of Suprastat: A Novel Selective Histone Deacetylase 6 Inhibitor with the Ability to Potentiate Immunotherapy in Melanoma Models” (J Med Chem, 2020)",
  "key": {"Mus musculus [1]": {"tested_on": "Mus musculus", "assay": "Immunomodulatory activity in C57BL/6 mouse harboring mouse SM1 cells assessed as effect on number of F4/80+ CD80+ H2+ antitumor M1 macrophages at 25 mg/kg, ip dosed 5 days per week before starting 15 mg/kg, ip anti-PD1 immune checkpoint blockade therapy by flow cytometry", "assay_type": "functional, organism-based", "settings": "time 5.0 day/week"}, "Mus musculus [2]": {"tested_on": "Mus musculus", "assay": "Immunomodulatory activity in C57BL/6 mouse harboring mouse SM1 cells assessed as increase in natural killer cells at 25 mg/kg, ip dosed 5 days per week before by flow cytometry", "assay_type": "functional, organism-based", "settings": "time 5.0 day/week"}, "[3]": {"target": "T1, Protein deacetylase HDAC6 (Homo sapiens) (UniProt Q9UBN7)", "T1 sequence (whole entry)": "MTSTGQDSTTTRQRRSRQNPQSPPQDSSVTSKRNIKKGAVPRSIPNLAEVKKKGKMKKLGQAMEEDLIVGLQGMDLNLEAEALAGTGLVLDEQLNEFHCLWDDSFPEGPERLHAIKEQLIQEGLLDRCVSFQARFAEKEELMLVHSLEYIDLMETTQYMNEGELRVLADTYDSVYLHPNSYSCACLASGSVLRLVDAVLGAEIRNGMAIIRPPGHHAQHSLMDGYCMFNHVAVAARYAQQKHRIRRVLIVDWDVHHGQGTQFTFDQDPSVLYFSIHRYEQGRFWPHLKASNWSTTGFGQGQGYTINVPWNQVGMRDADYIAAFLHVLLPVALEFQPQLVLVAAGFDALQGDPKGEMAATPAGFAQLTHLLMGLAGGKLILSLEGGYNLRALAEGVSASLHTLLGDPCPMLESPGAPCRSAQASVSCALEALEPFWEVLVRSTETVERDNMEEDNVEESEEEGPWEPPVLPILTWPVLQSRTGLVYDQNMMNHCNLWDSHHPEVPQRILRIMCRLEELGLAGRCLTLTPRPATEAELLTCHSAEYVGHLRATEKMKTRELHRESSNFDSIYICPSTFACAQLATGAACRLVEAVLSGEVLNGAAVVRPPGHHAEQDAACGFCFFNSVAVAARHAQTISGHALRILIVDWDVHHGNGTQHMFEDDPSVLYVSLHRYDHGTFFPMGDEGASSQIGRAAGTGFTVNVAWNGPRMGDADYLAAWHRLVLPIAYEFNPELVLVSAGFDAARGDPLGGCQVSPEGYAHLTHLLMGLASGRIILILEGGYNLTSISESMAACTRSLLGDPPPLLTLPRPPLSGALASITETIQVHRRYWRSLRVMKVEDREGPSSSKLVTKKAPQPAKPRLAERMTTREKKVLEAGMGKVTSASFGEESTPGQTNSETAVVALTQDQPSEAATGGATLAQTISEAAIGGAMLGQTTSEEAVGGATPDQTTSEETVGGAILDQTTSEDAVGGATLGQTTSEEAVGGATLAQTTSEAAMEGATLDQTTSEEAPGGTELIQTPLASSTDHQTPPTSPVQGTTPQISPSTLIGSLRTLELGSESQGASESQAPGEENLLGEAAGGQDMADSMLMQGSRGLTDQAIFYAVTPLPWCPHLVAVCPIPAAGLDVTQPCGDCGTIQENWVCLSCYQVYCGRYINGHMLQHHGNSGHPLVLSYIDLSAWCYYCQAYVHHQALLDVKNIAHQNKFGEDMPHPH", "assay": "Inhibition of human HDAC6 in human WM164 cells increase in acetylated alpha-tubulin levels at 0.1 to 10 uM by immunoblot analysis", "assay_type": "cell-based", "settings": "dose microM 0.1-10"}, "HEK293 [4]": {"tested_on": "HEK293", "assay": "Selectivity index, ratio of IC50 for human HDAC7 expressed in HEK293/T17 cells (unknown origin) to human HDAC6 expressed in HEK293/T17 cells", "assay_type": "cell-based"}, "HEK293 [5]": {"tested_on": "HEK293", "assay": "Selectivity index, ratio of IC50 for human HDAC1 expressed in HEK293/T17 cells (unknown origin) to human HDAC6 expressed in HEK293/T17 cells", "assay_type": "cell-based"}, "Mus musculus [6]": {"tested_on": "Mus musculus", "assay": "Immunomodulatory activity in C57BL/6 mouse harboring mouse SM1 cells assessed as reduction in natural killer T cells at 25 mg/kg, ip dosed 5 days per week before starting 15 mg/kg, ip anti-PD1 immune checkpoint blockade therapy by flow cytometry", "assay_type": "functional, organism-based", "settings": "time 5.0 day/week"}, "Mus musculus [7]": {"tested_on": "Mus musculus", "assay": "Immunomodulatory activity in C57BL/6 mouse harboring mouse SM1 cells assessed as increase in natural killer cells at 25 mg/kg, ip dosed 5 days per week before starting 15 mg/kg, ip anti-PD1 immune checkpoint blockade therapy by flow cytometry", "assay_type": "functional, organism-based", "settings": "time 5.0 day/week"}, "Mus musculus [8]": {"tested_on": "Mus musculus", "assay": "Immunomodulatory activity in C57BL/6 mouse harboring mouse SM1 cells assessed as increase in CD8+ central memory cells at 25 mg/kg, ip dosed 5 days per week by flow cytometry", "assay_type": "functional, organism-based", "settings": "time 5.0 day/week"}, "SM1": {"tested_on": "SM1", "assay": "Cytotoxicity in mouse SM1 cells assessed as reduction in cell viability up to 25 uM", "assay_type": "functional, cell-based", "settings": "dose microM <=25"}, "Mus musculus [9]": {"tested_on": "Mus musculus", "assay": "Immunomodulatory activity in C57BL/6 mouse harboring mouse SM1 cells assessed as reduction in F4/80+ CD206+ pro-tumor M2 macrophages at 25 mg/kg, ip dosed 5 days per week by flow cytometry", "assay_type": "functional, organism-based", "settings": "time 5.0 day/week"}, "[10]": {"target": "Histone deacetylase (Homo sapiens) (UniProt Q13547+O15379+Q9UBN7+Q92769+Q9UQL6+Q8WUI4+Q9BY41+Q96DB2+P56524+Q9UKV0+Q969S8)", "assay": "Inhibition of human HDAC in human WM164 cells increase in acetylated histone H3 levels at 0.1 to 10 uM by immunoblot analysis", "assay_type": "cell-based", "settings": "dose microM 0.1-10"}, "Mus musculus [11]": {"tested_on": "Mus musculus", "assay": "Immunomodulatory activity in C57BL/6 mouse harboring mouse SM1 cells assessed as effect on immunosuppressive T-regs at 25 mg/kg, ip dosed 5 days per week before starting 15 mg/kg, ip anti-PD1 immune checkpoint blockade therapy by flow cytometry", "assay_type": "functional, organism-based", "settings": "time 5.0 day/week"}},
  "note": "Active and inactive are the calls of the source. No cut-off for these calls is given here.",
  "data": [
    {"compound": "NCc1ccc(NC(=O)N(CCCCO)Cc2ccc(C(=O)NO)cc2)cc1", "values": [
      {"measurement": "Activity", "setting": "Mus musculus [1]", "result": "inactive"},
      {"measurement": "Activity", "setting": "Mus musculus [2]", "result": "Active"},
      {"measurement": "inhibition", "setting": "[3]", "result": "Dose-dependent effect"},
      {"measurement": "Ratio IC50", "setting": "HEK293 [4]", "result": 3680},
      {"measurement": "Ratio IC50", "setting": "HEK293 [5]", "result": 293},
      {"measurement": "Activity", "setting": "Mus musculus [6]", "result": "Active"},
      {"measurement": "Activity", "setting": "Mus musculus [7]", "result": "Active"},
      {"measurement": "Activity", "setting": "Mus musculus [8]", "result": "Active"},
      {"measurement": "Activity", "setting": "SM1", "result": "inactive"},
      {"measurement": "Activity", "setting": "Mus musculus [9]", "result": "Active"},
      {"measurement": "inhibition", "setting": "[10]", "result": "Active"},
      {"measurement": "Activity", "setting": "Mus musculus [11]", "result": "inactive"}
    ]}
  ]
}
